Reference: ChEMBL document CHEMBL1201862, “PubChem BioAssay data set” (2004)
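Results reflect a 48-hour exposure of cells in 96-well plates to compound at five concentrations. GI50 is the concentration that inhibits growth by half.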 Calls of active or inactive are those of the source. No stated cut-off is given here; in the data, active = GI50 up to about 1.1 µM and inactive = higher.

Key:
Test in all cases: NCI anticancer screen, dose series, 48 h
786-0 = tested on: 786-0
BT-549 = tested on: BT-549
DU-145 = tested on: DU-145
EKVX = tested on: EKVX
HCC 2998 = tested on: HCC 2998
K562 = tested on: K562
M14 = tested on: M14
MDA-MB-435 = tested on: MDA-MB-435
MOLT-4 = tested on: MOLT-4
Malme-3M = tested on: Malme-3M
NCI-H23 = tested on: NCI-H23
OVCAR-3 = tested on: OVCAR-3
OVCAR-5 = tested on: OVCAR-5
OVCAR-8 = tested on: OVCAR-8
PC-3 = tested on: PC-3
SK-MEL-2 = tested on: SK-MEL-2
SN12C = tested on: SN12C
TK-10 = tested on: TK-10
U-251 = tested on: U-251

| Structure (SMILES) | GI50 (786-0) | GI50 (BT-549) | GI50 (DU-145) | GI50 (EKVX) | GI50 (HCC 2998) | GI50 (K562) | GI50 (M14) | GI50 (MDA-MB-435) | GI50 (MOLT-4) | GI50 (Malme-3M) | GI50 (NCI-H23) | GI50 (OVCAR-3) | GI50 (OVCAR-5) | GI50 (OVCAR-8) | GI50 (PC-3) | GI50 (SK-MEL-2) | GI50 (SN12C) | GI50 (TK-10) | GI50 (U-251) |
| --- | --- | --- | --- | --- | --- | --- | --- | --- | --- | --- | --- | --- | --- | --- | --- | --- | --- | --- | --- |
| N#Cc1c(N)nc2[nH]nc(N)c2c1-c1ccccc1 | 16.8 µM (inactive) | 7.43 µM (inactive) | 8.11 µM (inactive) | 7.74 µM (inactive) | 16.5 µM (inactive) | > 41.8 µM (inactive) | 7.03 µM (inactive) | 6.93 µM (inactive) | 4.04 µM (inactive) | 4.73 µM (inactive) | 6.49 µM (inactive) | 3.72 µM (inactive) | 14.9 µM (inactive) | 12.5 µM (inactive) | 5.13 µM (inactive) | 3.4 µM (inactive) | 5.33 µM (inactive) | 5.6 µM (inactive) | 21.2 µM (inactive) |
| CCOC(=O)C(SCCO)C(C(=O)OCC)n1cc(C)c(=O)[nH]c1=O (centres undefined) | 3.88 µM (inactive) | 23.6 µM (inactive) | > 74.6 µM (inactive) | 30.7 µM (inactive) | 27.4 µM (inactive) | 3.48 µM (inactive) | 11.6 µM (inactive) | 14.3 µM (inactive) | 4.81 µM (inactive) | 15.4 µM (inactive) | 21.2 µM (inactive) | 12.5 µM (inactive) | 15 µM (inactive) | 14.1 µM (inactive) | 13.9 µM (inactive) | 19.6 µM (inactive) | 10.7 µM (inactive) | 24.9 µM (inactive) | 11.5 µM (inactive) |
| c1n[nH]cc1C12C3C4C5C3C1C5C42 (centres undefined) | > 100 µM (inactive) | > 100 µM (inactive) | > 100 µM (inactive) | 85.7 µM (inactive) | > 100 µM (inactive) | > 100 µM (inactive) | > 100 µM (inactive) | > 100 µM (inactive) | > 100 µM (inactive) | > 100 µM (inactive) | > 100 µM (inactive) | > 100 µM (inactive) | 94.6 µM (inactive) | > 100 µM (inactive) | > 100 µM (inactive) | > 100 µM (inactive) | > 100 µM (inactive) | > 100 µM (inactive) | > 100 µM (inactive) |
| CCOc1ccc2c(c1)NC(=O)C(C1OC(c3ccccc3)=CC1=O)S2 (centres undefined) | 33.3 µM (inactive) | 32.1 µM (inactive) | 38.5 µM (inactive) | 25.1 µM (inactive) | 14.4 µM (inactive) | 24.2 µM (inactive) | 48.2 µM (inactive) | 18.5 µM (inactive) | – | 21.1 µM (inactive) | 28.2 µM (inactive) | 20.1 µM (inactive) | 16.1 µM (inactive) | 22.5 µM (inactive) | 13.8 µM (inactive) | 40.1 µM (inactive) | 26.7 µM (inactive) | 43.7 µM (inactive) | 19.7 µM (inactive) |
| CN(C)CC1CCC/C(=C\c2ccc(OC(=O)/C=C/c3ccccc3)cc2)C1=O (centres undefined) | 0.776 µM (active) | 2.11 µM (inactive) | 2.47 µM (inactive) | 2.18 µM (inactive) | 10.5 µM (inactive) | 3.06 µM (inactive) | 2.36 µM (inactive) | 2.59 µM (inactive) | 1.3 µM (inactive) | 2.2 µM (inactive) | 1.91 µM (inactive) | 1.97 µM (inactive) | 2.45 µM (inactive) | 2 µM (inactive) | 4.74 µM (inactive) | 3.52 µM (inactive) | 2.01 µM (inactive) | 1.73 µM (inactive) | 1.72 µM (inactive) |
| COc1ccccc1C(O)[C@@H]1C[C@@H]2[C@H]3CC[C@@](C)([C@@H]2O1)C3(C)C (some centres undefined) | 17.8 µM (inactive) | 18.1 µM (inactive) | 22.1 µM (inactive) | 45.2 µM (inactive) | 20.8 µM (inactive) | 21.3 µM (inactive) | 21.4 µM (inactive) | 18.5 µM (inactive) | 15.4 µM (inactive) | 15 µM (inactive) | 19.5 µM (inactive) | 17.1 µM (inactive) | 19.5 µM (inactive) | 18.2 µM (inactive) | 20.7 µM (inactive) | 18.1 µM (inactive) | 16.4 µM (inactive) | 21.8 µM (inactive) | 16.5 µM (inactive) |
| CO/C=C/C=C(\C#N)C(=O)OC | > 100 µM (inactive) | > 100 µM (inactive) | > 100 µM (inactive) | > 100 µM (inactive) | > 100 µM (inactive) | > 100 µM (inactive) | – | > 100 µM (inactive) | 16.9 µM (inactive) | > 100 µM (inactive) | > 100 µM (inactive) | > 100 µM (inactive) | > 100 µM (inactive) | > 100 µM (inactive) | > 100 µM (inactive) | > 100 µM (inactive) | > 100 µM (inactive) | > 100 µM (inactive) | > 100 µM (inactive) |
| CN1C(=O)C(/C=N/NC(=O)c2cccnc2)C(N)N(C)C1=O (centres undefined) | > 100 µM (inactive) | > 100 µM (inactive) | > 100 µM (inactive) | > 100 µM (inactive) | > 100 µM (inactive) | > 100 µM (inactive) | > 100 µM (inactive) | > 100 µM (inactive) | > 100 µM (inactive) | > 100 µM (inactive) | > 100 µM (inactive) | > 100 µM (inactive) | > 100 µM (inactive) | > 100 µM (inactive) | > 100 µM (inactive) | 35.3 µM (inactive) | > 100 µM (inactive) | > 100 µM (inactive) | > 100 µM (inactive) |
| COC(=O)c1ccc(C)cc1CC1Cc2cccc(C)c2C1=O (centres undefined) | 14.6 µM (inactive) | 9.77 µM (inactive) | 11.9 µM (inactive) | 2.94 µM (inactive) | 9.59 µM (inactive) | 2.77 µM (inactive) | 3.93 µM (inactive) | 1.48 µM (inactive) | 4.11 µM (inactive) | 5.97 µM (inactive) | 11.1 µM (inactive) | 4.95 µM (inactive) | 14 µM (inactive) | 5.08 µM (inactive) | 8.34 µM (inactive) | 4.34 µM (inactive) | 10.2 µM (inactive) | 12.9 µM (inactive) | 3.87 µM (inactive) |
| CCOC(=O)C(=Cc1ccccc1Cl)C(=O)OCC | 1.34 µM (inactive) | 1.62 µM (inactive) | 1.92 µM (inactive) | 3.03 µM (inactive) | > 10 µM (inactive) | 1.15 µM (inactive) | 1.5 µM (inactive) | 1.13 µM (inactive) | 2.52 µM (inactive) | 1.82 µM (inactive) | 1.66 µM (inactive) | 1.41 µM (inactive) | 1.88 µM (inactive) | 0.938 µM (active) | 1.79 µM (inactive) | 2.03 µM (inactive) | 1.6 µM (inactive) | – | 1.63 µM (inactive) |
| C=CC(C)(O)CCC1C(=C)C(O)CC2C(C)(C)CCCC12C (centres undefined) | 18.6 µM (inactive) | 18 µM (inactive) | 18.2 µM (inactive) | 19.1 µM (inactive) | 18.6 µM (inactive) | 14.4 µM (inactive) | 16.3 µM (inactive) | 18.6 µM (inactive) | 14.2 µM (inactive) | 18.2 µM (inactive) | 18.7 µM (inactive) | 18.9 µM (inactive) | 20 µM (inactive) | 26.1 µM (inactive) | 15.3 µM (inactive) | 16.3 µM (inactive) | 18.9 µM (inactive) | 20 µM (inactive) | 15.5 µM (inactive) |
| CN(C)/C=C/c1ccncc1 | > 100 µM (inactive) | > 100 µM (inactive) | > 100 µM (inactive) | > 100 µM (inactive) | > 100 µM (inactive) | > 100 µM (inactive) | > 100 µM (inactive) | > 100 µM (inactive) | 28.7 µM (inactive) | > 100 µM (inactive) | > 100 µM (inactive) | > 100 µM (inactive) | > 100 µM (inactive) | > 100 µM (inactive) | > 100 µM (inactive) | > 100 µM (inactive) | > 100 µM (inactive) | > 100 µM (inactive) | > 100 µM (inactive) |
| N#CC(NNC(=O)Cc1ccccc1)c1ccccc1O (centres undefined) | 8.75 µM (inactive) | 21 µM (inactive) | 20.8 µM (inactive) | 8.41 µM (inactive) | 12.7 µM (inactive) | 11.3 µM (inactive) | 10.5 µM (inactive) | 27.7 µM (inactive) | 3.72 µM (inactive) | 16.3 µM (inactive) | 9.23 µM (inactive) | 3.75 µM (inactive) | 26.9 µM (inactive) | 12.3 µM (inactive) | 5.79 µM (inactive) | 30.3 µM (inactive) | 23.3 µM (inactive) | 24.2 µM (inactive) | 6.15 µM (inactive) |
| CC1CC[C@@]2(OC1)OC1C[C@H]3[C@@H]4CCC5CC(O)CC[C@]5(C)[C@H]4C/C(=N\N(C)C)[C@]3(C)C1[C@@H]2C (some centres undefined) | 20.3 µM (inactive) | 29.4 µM (inactive) | 21.8 µM (inactive) | – | 19.1 µM (inactive) | 28.2 µM (inactive) | 32.3 µM (inactive) | 19.5 µM (inactive) | 24.7 µM (inactive) | 33.1 µM (inactive) | 20.3 µM (inactive) | 17.9 µM (inactive) | 27.1 µM (inactive) | – | 25.6 µM (inactive) | 20.5 µM (inactive) | 24.8 µM (inactive) | 29.2 µM (inactive) | 31 µM (inactive) |
| Cc1ccc(NC(=S)NNC(=O)c2cc(-c3ccccc3)nc3ccccc23)cc1 | 13 µM (inactive) | 15.7 µM (inactive) | 12.9 µM (inactive) | – | 10.8 µM (inactive) | 13.4 µM (inactive) | 11.9 µM (inactive) | 2.81 µM (inactive) | 14.3 µM (inactive) | 6.35 µM (inactive) | 12.6 µM (inactive) | 7.89 µM (inactive) | 15.4 µM (inactive) | 18.3 µM (inactive) | 12 µM (inactive) | 10.3 µM (inactive) | 16.2 µM (inactive) | 14 µM (inactive) | 5.68 µM (inactive) |
